# From patent US20070270434A1, “SULFONYL-SUBSTITUTED BICYCLIC COMPOUNDS AS MODULATORS OF PPAR” (KALYPSYS, INC., priority 2006, published 2007)
# What was measured:
# Type in all cases: cell-based, murine and human
# Details in all cases: 20-24 hours
# [1] = target: T1, PPAR-alpha ligand binding domain fused to GAL4 DNA binding domain (UniProt Q07869); test: Transient transfection transactivation assay in CV-1 cells, PPAR-alpha (GAL4 chimera, luciferase reporter)
# T1 sequence (Q07869 1-468): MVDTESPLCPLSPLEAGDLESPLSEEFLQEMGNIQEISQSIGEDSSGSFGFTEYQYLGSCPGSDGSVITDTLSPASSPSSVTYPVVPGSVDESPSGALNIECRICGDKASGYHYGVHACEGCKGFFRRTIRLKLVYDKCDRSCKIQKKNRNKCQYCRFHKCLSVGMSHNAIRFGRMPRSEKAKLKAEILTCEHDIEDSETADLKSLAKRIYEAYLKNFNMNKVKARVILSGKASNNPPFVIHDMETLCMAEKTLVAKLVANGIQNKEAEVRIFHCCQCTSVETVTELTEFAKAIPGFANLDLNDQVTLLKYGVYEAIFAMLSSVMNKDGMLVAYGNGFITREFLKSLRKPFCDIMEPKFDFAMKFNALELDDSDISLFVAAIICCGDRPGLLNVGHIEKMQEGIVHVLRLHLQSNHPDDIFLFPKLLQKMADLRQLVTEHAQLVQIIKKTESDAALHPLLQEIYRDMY
# Description: (§1) Compounds may be screened for functional potency in transient transfection assays in CV-1 cells for their ability to activate the PPAR subtypes (transactivation assay). A previously established chimeric receptor system was utilized to allow comparison of the relative transcriptional activity of the receptor subtypes on the same synthetic response element and to prevent endogenous receptor activation from complicating the interpretation of results. See, for example, Lehmann, J. M.; Moore, L. B.; Smith-Oliver, T. A; Wilkinson, W. O.; Willson, T. M.; Kliewer, S. A., An antidiabetic thiazolidinedione is a high affinity ligand for peroxisome proliferator-activated receptor […], J. Biol. Chem., 1995, 270, 12953-6. The ligand binding domains for murine and human PPAR-alpha, PPAR-gamma, and PPAR-delta are each fused to the yeast transcription factor GAL4 DNA binding domain. CV-1 cells were transiently transfected with expression vectors for the respective PPAR chimera along with a reporter construct containing four or five copies of the GAL4 DNA binding site driving expression of luciferase. After 8-16 h, the cells are replated into multi-well assay plates and the media is exchanged to phenol-red free DME medium supplemented with 5% delipidated calf serum. 4 hours after replating, cells were treated with either compounds or 1% DMSO for 20-24 hours. Luciferase activity was then assayed with Britelite (Perkin Elmer) following the manufacturer's protocol and measured with either the Perkin Elmer Viewlux or Molecular Devices Acquest (see, for example, Kliewer, S. A., et. al. Cell 1995, 83, 813-819). Rosiglitazone is used as a positive control in the PPARγ assay. Wy-14643 and GW7647 are used as positive controls in the PPARα assay. GW501516 is used as the positive control in the PPARδ assay.
# [2] = target: T2, PPAR-delta ligand binding domain fused to GAL4 DNA binding domain (UniProt Q03181); test: Transient transfection transactivation assay in CV-1 cells, PPAR-delta (GAL4 chimera, luciferase reporter)
# T2 sequence (Q03181 1-441): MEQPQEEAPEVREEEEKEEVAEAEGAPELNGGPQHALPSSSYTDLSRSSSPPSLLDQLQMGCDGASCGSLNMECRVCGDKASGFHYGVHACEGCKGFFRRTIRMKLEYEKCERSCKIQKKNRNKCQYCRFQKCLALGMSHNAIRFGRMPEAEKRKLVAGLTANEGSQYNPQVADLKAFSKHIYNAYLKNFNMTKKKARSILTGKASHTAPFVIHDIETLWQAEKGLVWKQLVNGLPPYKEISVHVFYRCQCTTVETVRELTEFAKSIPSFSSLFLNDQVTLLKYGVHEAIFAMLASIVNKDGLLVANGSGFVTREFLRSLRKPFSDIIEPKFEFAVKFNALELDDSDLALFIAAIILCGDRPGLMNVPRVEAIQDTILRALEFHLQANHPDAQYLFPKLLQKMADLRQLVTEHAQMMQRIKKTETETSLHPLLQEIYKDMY
# Description: as §1
# [3] = target: T3, PPAR-gamma ligand binding domain fused to GAL4 DNA binding domain (UniProt P37231); test: Transient transfection transactivation assay in CV-1 cells, PPAR-gamma (GAL4 chimera, luciferase reporter)
# T3 sequence (P37231 1-505): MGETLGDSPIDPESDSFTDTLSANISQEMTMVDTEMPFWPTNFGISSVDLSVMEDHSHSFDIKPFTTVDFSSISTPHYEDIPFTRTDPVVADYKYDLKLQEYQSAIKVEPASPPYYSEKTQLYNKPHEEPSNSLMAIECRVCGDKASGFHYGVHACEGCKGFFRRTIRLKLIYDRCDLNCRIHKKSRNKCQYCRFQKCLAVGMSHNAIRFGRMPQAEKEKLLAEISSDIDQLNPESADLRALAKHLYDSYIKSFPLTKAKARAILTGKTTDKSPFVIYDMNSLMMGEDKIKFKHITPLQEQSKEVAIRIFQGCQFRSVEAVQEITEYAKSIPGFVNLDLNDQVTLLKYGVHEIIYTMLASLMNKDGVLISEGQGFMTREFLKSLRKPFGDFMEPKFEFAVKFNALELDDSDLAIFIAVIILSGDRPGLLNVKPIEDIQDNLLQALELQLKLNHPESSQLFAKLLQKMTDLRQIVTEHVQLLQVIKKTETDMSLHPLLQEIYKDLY
# Description: as §1
EC50 [1],EC50 [2],EC50 [3],Compound
> 100 µM,< 5 µM,> 100 µM,"C[C@@H]1CN(CCc2ccc(Cl)cc2)C[C@H](C)N1S(=O)(=O)c1cccc2c1CC(C(=O)O)C2 (stereo partly drawn) [Example 24, 4-(4-(4-chlorophenethyl)-(cis)-2,6-dimethylpiperazin-1-ylsulfonyl)-2,3-dihydro-1H-indene-2-carboxylic acid]"
> 100 µM,< 5 µM,> 100 µM,"C[C@@H]1CN(CC2(c3ccc(Cl)cc3)CC2)C[C@H](C)N1S(=O)(=O)c1cccc2c1CC(C(=O)O)C2 (stereo partly drawn) [Example 25, 4-(4-((1-(4-chlorophenyl)cyclopropyl)methyl)-(cis)-2,6-dimethylpiperazin-1-ylsulfonyl)-2,3-dihydro-1-H-indene-2-carboxylic acid]"
> 100 µM,5 to 100 µM,> 100 µM,"O=C(O)C1Cc2cccc(S(=O)(=O)N3CCN(C(=O)CCc4ccc(OC(F)(F)F)cc4)CC3)c2C1 (stereo not drawn) [Example 16, 4-(4-(3-(4-(Trifluoromethoxy)phenyl)propanoyl)piperazin-1-ylsulfonyl)-2,3-dihydro-1H-indene-2-carboxylic acid]"
> 100 µM,< 5 µM,> 100 µM,"C[C@@H]1CN(C(=O)CCc2ccc(OC(F)(F)F)cc2)C[C@H](C)N1S(=O)(=O)c1cccc2c1CC(C(=O)O)C2 (stereo partly drawn) [Example 8, 4-(cis-2,6-Dimethyl-4-(3-(4-(trifluoromethoxy)phenyl)propanoyl)piperazin-1-ylsulfonyl)-2,3-dihydro-1H-indene-2-carboxylic acid]"
5 to 100 µM,< 5 µM,5 to 100 µM,"C[C@@H]1CN(CCc2ccc(SC(F)(F)F)cc2)C[C@H](C)N1S(=O)(=O)c1cccc2c1CC(C(=O)O)C2 (stereo partly drawn) [Example 23, 4-((cis)-2,6-Dimethyl-4-(4-(trifluoromethylthio)phenethyl)piperazin-1-ylsulfonyl)-2,3-dihydro-1H-indene-2-carboxylic acid]"
5 to 100 µM,< 5 µM,5 to 100 µM,"O=C(O)C1Cc2cccc(S(=O)(=O)N3CCN(CCc4ccc(C(F)(F)F)cc4)CC3)c2C1 (stereo not drawn) [Example 21, 4-(4-(4-(trifluoromethyl)phenethyl)piperazin-1-ylsulfonyl)-2,3-dihydro-1H-indene-2-carboxylic acid]"
